In assay [1] the test system is nuOXPHOS transcripts. In kind it is cell-based, mouse. The following applies: Conc 20 μM; for nucOX (composite Z-score): normalized score vs mock-treated (DMSO) wells.
In assay [2] the test system is cytochrome c. In kind it is cell-based, mouse. The settings on record: for cyt c (composite Z-score): normalized score vs mock-treated (DMSO) wells.
Assay [3] relates to reactive oxygen species. It counts as cell-based, mouse. The following applies: Conc 20 μM; for ROS (composite Z-score): normalized score vs mock-treated (DMSO) wells.
Assay [4] concerns mitochondrial membrane potential. In kind it is cell-based, mouse. The following applies: Conc 20 μM; for ΔΨm (composite Z-score): normalized score vs mock-treated (DMSO) wells.
Assay [5] concerns cellular dehydrogenase activity. The settings on record: Conc 20 μM; for MTT (composite Z-score): normalized score vs mock-treated (DMSO) wells.
Assay [6] relates to OXPHOS gene expression. In kind it is cell-based, mouse. The following applies: Conc 20 μM; for GE-HTS (composite Z-score): normalized score vs mock-treated (DMSO) wells.
The test system of assay [7] is C2C12 myotubes. The following applies: Conc 20 μM; for Viability (composite Z-score): normalized score vs mock-treated (DMSO) wells.
Assay [8] relates to mtOXPHOS transcripts. It counts as cell-based, mouse. The settings on record: Conc 20 μM; for mitoOX (composite Z-score): normalized score vs mock-treated (DMSO) wells.
Where [9] appears, read: composite Z-score vs DMSO wells.
Where [10] appears, read: composite Z-score vs DMSO wells, Conc 20 μM.
Setting [11] is: composite Z-score vs DMSO, Conc 20 μM.
The mark [12] stands for this setting: normalized composite Z-score vs mock-treated (DMSO) wells.

Read-outs that look alike come from different tables or passages of the source.

Sequence of cytochrome c (P62897 whole entry): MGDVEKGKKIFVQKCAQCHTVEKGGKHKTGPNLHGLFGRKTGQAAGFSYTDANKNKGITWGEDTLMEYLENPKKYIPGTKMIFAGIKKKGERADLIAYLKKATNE

In assay [1] (setting [9]), `CN1C[C@H](C(=O)N[C@]2(C)O[C@@]3(O)[C@@H]4CCCN4C(=O)[C@H](Cc4ccccc4)N3C2=O)C[C@@H]2c3cccc4[nH]cc(c34)C[C@H]21` [dihydroergotamine] gave a nucOX of −0.021. The cyt c in assay [2] (setting [10]) is −0.494. In assay [3] (setting [9]), this compound returned an ROS of 1.157. This compound also showed a ΔΨm in assay [4] (setting [9]) of 0.372. Moreover, the MTT in assay [5] (setting [9]) is reported as −0.604. The compound further came in with a GE-HTS in assay [6] (setting [9]) of 0.008. In assay [7] (setting [9]), this compound showed a Viability of 0.293. This compound also yielded a mitoOX in assay [8] (setting [9]) of 0.143.
Turning to `COc1ccc2c(c1)OC/C(=C/c1ccc(OC)c(OC)c1)C2=O` [sappanone A trimethyl ether], in assay [1], the “nucOX (composite Z-score)” value was determined as 1.458. The “cyt c (composite Z-score)” value in assay [2] (Conc 20 μM) is recorded as −0.471. Moreover, the “ROS (composite Z-score)” value in assay [3] amounted to 0.120. The “ΔΨm (composite Z-score)” value in assay [4] was −0.290. Further, the “MTT (composite Z-score)” value in assay [5] is −0.980. Further, the “GE-HTS (composite Z-score)” value in assay [6] amounted to 1.090. The “Viability (composite Z-score)” value in assay [7] is listed as −0.259. Moreover, the “mitoOX (composite Z-score)” value in assay [8] came out at 0.094.
In assay [1] (composite Z-score vs DMSO), `COC1=CC(=O)C(C(=O)c2ccccc2)=CC1=O` [2-benzoyl-5-methoxybenzoquinone] had a nucOX of −0.511. The cyt c in assay [2] (setting [11]) was 0.206. Besides, the ROS in assay [3] (composite Z-score vs DMSO) is given as −0.542. This compound also returned a ΔΨm in assay [4] (composite Z-score vs DMSO) of −0.229. The compound further yielded an MTT in assay [5] (composite Z-score vs DMSO) of −1.489. This compound displayed a GE-HTS in assay [6] (composite Z-score vs DMSO) of −0.699. This compound showed a Viability in assay [7] (composite Z-score vs DMSO) of −0.284. In assay [8] (composite Z-score vs DMSO), this compound registered a mitoOX of −0.985.
With mepartricin, the “nucOX (composite Z-score)” value in assay [1] is reported as −0.728. Further, the “cyt c (composite Z-score)” value in assay [2] (Conc 20 μM) worked out at 0.264. For the same compound, the “ROS (composite Z-score)” value in assay [3] was −0.251. The “ΔΨm (composite Z-score)” value in assay [4] is listed as −0.309. Moreover, the “MTT (composite Z-score)” value in assay [5] is on record as −1.431. For the same compound, the “GE-HTS (composite Z-score)” value in assay [6] was −0.710. For the same compound, the “Viability (composite Z-score)” value in assay [7] is on record as −0.568. In addition, the “mitoOX (composite Z-score)” value in assay [8] is given as −0.464.
Turning to `CC1(C)C=CC(=O)[C@@]2(C)C1CC(=O)[C@]1(C)C2CC[C@@]2(C)[C@H](c3ccoc3)OC(=O)C3OC321` (stereo partly drawn) [deacetoxy-7-oxisogedunin], the “nucOX (composite Z-score)” value in assay [1] is reported as 0.821. For the same compound, the “cyt c (composite Z-score)” value in assay [2] (Conc 20 μM) is recorded as 0.153. Also, the “ROS (composite Z-score)” value in assay [3] was determined as 0.898. In addition, the “ΔΨm (composite Z-score)” value in assay [4] is given as 0.332. In addition, the “MTT (composite Z-score)” value in assay [5] is reported as −0.791. Besides, in assay [6], the “GE-HTS (composite Z-score)” value turned out to be 0.816. For the same compound, the “Viability (composite Z-score)” value in assay [7] is recorded as −0.301. Also, the “mitoOX (composite Z-score)” value in assay [8] was found to be 0.694.
In assay [1] (composite Z-score vs DMSO), `COc1cc(OC)c2c(=O)c(-c3ccccc3)c(C)oc2c1OC` [2-methyl-5,7,8-trimethoxyisoflavone] yielded a nucOX of 0.629. In assay [2] (setting [11]), this compound registered a cyt c of 1.063. This compound also showed an ROS in assay [3] (composite Z-score vs DMSO) of −0.371. The ΔΨm in assay [4] (composite Z-score vs DMSO) worked out at 0.306. In assay [5] (composite Z-score vs DMSO), this compound gave an MTT of −0.531. The compound also came in with a GE-HTS in assay [6] (composite Z-score vs DMSO) of 0.495. In addition, in assay [7] (composite Z-score vs DMSO), the Viability is −0.656. The same compound registered a mitoOX in assay [8] (composite Z-score vs DMSO) of 0.081.
In assay [1] (setting [12]), `COc1ccc([C@H]2Oc3cc(OC)cc(OC)c3C[C@H]2O)cc1` [epiafzelechin trimethyl ether] registered a nucOX of −0.134. In assay [2] (normalized composite Z-score vs mock-treated (DMSO) wells, Conc 20 μM), this compound came in with a cyt c of 1.099. Moreover, the ROS in assay [3] (setting [12]) was −0.190. The compound further registered a ΔΨm in assay [4] (setting [12]) of −0.324. In assay [5] (setting [12]), the MTT is listed as −0.884. This compound yielded a GE-HTS in assay [6] (setting [12]) of 0.019. Further, in assay [7] (setting [12]), the Viability came out at 0.557. Also, the mitoOX in assay [8] (setting [12]) was 0.350.
In assay [1] (composite Z-score vs DMSO), `C[C@]12CCC3c4ccc(OC(=O)c5ccccc5)cc4CCC3C1CCC2=O` (stereo partly drawn) [estrone benzoate] had a nucOX of 0.190. In addition, in assay [2] (setting [11]), the cyt c came out at 0.406. Further, the ROS in assay [3] (composite Z-score vs DMSO) is 0.210. The compound also returned a ΔΨm in assay [4] (composite Z-score vs DMSO) of −0.277. This compound returned an MTT in assay [5] (composite Z-score vs DMSO) of −0.807. This compound came in with a GE-HTS in assay [6] (composite Z-score vs DMSO) of 0.061. This compound also registered a Viability in assay [7] (composite Z-score vs DMSO) of 0.154. The compound also returned a mitoOX in assay [8] (composite Z-score vs DMSO) of −0.179.
`CCCCOc1ccc(C(=O)CCN2CCCCC2)cc1` [dyclonine]: the nucOX in assay [1] (setting [9]) was −0.377. For the same compound, the results for the cyt c in assay [2] and in assay [2] (setting [10]) were 0.597 and 1.243, respectively. In assay [3] (setting [9]), the ROS is 0.379. In assay [4] (setting [9]), this compound registered a ΔΨm of −1.085. The MTT in assay [5] (setting [9]) was −0.882. In assay [6] (setting [9]), the GE-HTS is −0.690. The same compound came in with a Viability in assay [7] (setting [9]) of −0.640. Also, the mitoOX in assay [8] (setting [9]) is −1.117.
`N[C@H]1C(O)O[C@H](CO)[C@H](O)[C@@H]1O[C@@H]1O[C@H](C(=O)O)[C@@H](O)[C@H](O)[C@H]1O` (stereo partly drawn) [chondrosine] had a nucOX in assay [1] (composite Z-score vs DMSO) of −0.782. The compound also gave a cyt c in assay [2] (setting [11]) of 0.040. The ROS in assay [3] (composite Z-score vs DMSO) worked out at 0.741. The compound also yielded a ΔΨm in assay [4] (composite Z-score vs DMSO) of −1.001. This compound displayed an MTT in assay [5] (composite Z-score vs DMSO) of −1.759. Besides, in assay [6] (composite Z-score vs DMSO), the GE-HTS was −0.743. In assay [7] (composite Z-score vs DMSO), this compound had a Viability of −0.800. Moreover, the mitoOX in assay [8] (composite Z-score vs DMSO) is reported as −0.476.

For the origin of these results see US20090143279A1 (priority 2007, published 2009).
